Experimental data published in BindingDB's records for patent US20250282736 (ST. JUDE CHILDREN''S RESEARCH HOSPITAL, 2025).

Target: T1, PXR (Nuclear receptor subfamily 1 group I member 2) (Homo sapiens, UniProt O75469)
T1 sequence (O75469 whole entry): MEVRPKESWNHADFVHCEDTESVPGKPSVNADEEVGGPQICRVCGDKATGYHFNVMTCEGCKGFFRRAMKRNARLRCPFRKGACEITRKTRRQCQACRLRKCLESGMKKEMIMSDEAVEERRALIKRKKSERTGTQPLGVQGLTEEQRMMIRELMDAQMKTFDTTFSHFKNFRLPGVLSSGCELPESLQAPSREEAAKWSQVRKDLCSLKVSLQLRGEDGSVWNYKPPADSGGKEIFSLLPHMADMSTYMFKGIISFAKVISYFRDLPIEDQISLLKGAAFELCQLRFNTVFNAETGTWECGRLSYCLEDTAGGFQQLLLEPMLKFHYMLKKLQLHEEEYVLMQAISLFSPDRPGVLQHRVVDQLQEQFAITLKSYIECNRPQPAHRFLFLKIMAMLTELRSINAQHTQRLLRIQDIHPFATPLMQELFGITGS
Test: In Vitro Assay
Description: PXR can be determined in an in vitro assay system. Such in vitro assay systems include assay such as the assays as described herein.

IC50 [µM]	SMILES
0.36	COc1ccc(Cl)cc1-n1nnc(C(=O)Nc2cc(C(C)(C)C)ccc2OCC(=O)O)c1C [US20250282736, Compound B25]
0.0038	CCCC(CC)Oc1ccc(C(C)(C)C)cc1NC(=O)c1nnn(-c2cc(OC)ccc2OC)c1C (configuration not stated) [US20250282736, Compound J1]
